Measurements as given in paper PMC11643494, “Structure–Activity Relationship Studies in a Series of 2-Aryloxy-N-(pyrimidin-5-yl)acetamide Inhibitors of SLACK Potassium Channels” (Molecules, 2024).
Read-outs that look alike come from different tables or passages of the source. Values belong to the compound of their own block, whether it stands above or below them.

Key:
WT human SLACK = target: T1, WT human SLACK (Homo sapiens, UniProt Q5JUK3); experiment: Whole-cell automated patch clamp (APC) in CHO-K1 cells stably expressing WT human SLACK; type: cell-based; conditions: for IC50 / WT SLACK inhibition, result in words: APC; for IC50: CHO-K1 cells stably expressing WT human SLACK, averages (n ≥ 3); for Fold less potent than hit 10 (SLACK inhibition): ratio of WT SLACK APC IC50 to hit 10; for SLACK Imax: maximum inhibition at 30 µM test compound standardized to VU0606170 (set at 100%), WT human SLACK; for WT SLACK inhibition, result in words: concentrations 0.125 to 30 µM
T1 construct: host or cells: CHO-K1
T1 sequence (Q5JUK3 1-1235 isoform Q5JUK3-3): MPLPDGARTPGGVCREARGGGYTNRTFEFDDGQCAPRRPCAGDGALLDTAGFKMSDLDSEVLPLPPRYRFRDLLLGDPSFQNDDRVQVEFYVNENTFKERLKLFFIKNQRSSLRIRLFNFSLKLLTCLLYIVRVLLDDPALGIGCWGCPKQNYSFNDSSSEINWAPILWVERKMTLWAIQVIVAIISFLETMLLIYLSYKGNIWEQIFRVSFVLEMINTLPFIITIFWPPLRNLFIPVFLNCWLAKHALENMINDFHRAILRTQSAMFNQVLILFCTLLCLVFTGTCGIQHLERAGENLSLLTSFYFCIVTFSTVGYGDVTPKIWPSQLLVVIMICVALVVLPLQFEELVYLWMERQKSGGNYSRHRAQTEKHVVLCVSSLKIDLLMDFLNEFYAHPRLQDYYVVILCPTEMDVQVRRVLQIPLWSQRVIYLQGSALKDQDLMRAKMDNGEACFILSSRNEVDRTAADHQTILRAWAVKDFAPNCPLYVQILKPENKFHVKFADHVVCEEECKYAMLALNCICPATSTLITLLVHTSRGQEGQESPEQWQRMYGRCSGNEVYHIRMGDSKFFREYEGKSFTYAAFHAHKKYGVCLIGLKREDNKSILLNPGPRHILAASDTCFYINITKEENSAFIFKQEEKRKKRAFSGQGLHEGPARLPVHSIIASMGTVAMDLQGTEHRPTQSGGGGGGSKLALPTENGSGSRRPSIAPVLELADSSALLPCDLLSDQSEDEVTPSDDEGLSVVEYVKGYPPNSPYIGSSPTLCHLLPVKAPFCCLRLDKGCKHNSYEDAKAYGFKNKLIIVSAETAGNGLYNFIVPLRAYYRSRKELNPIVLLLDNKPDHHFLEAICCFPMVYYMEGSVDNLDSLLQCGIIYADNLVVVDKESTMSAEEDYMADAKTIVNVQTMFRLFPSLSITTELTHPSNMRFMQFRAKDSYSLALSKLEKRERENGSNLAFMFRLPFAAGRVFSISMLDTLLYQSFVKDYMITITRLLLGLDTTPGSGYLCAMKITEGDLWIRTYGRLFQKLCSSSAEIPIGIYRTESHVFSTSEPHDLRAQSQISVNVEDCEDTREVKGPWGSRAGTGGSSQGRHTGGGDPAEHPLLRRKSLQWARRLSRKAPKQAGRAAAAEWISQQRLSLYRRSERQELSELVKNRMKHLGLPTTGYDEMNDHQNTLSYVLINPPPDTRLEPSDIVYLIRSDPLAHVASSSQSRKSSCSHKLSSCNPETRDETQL
Protocol: Using concentrations ranging from 0.125 to 30 µM in half-log steps, a concentration–response relationship was generated for each new analog using our APC assay in CHO-K1 cells stably expressing WT SLACK. A minimum of three cells, i.e., replicates, were collected per concentration for each analog.
Automated patch clamp recording was performed with a SyncroPatch 768 PE system (Nanion, Munich, Germany) as previously described. Whole-cell recordings were performed at room temperature. Cells were harvested by first washing with PBS without Mg^2+ or Ca^2+ (Gibco, Billings, MT, USA) to remove cell culture medium, followed by dissociation with TryPLE (Gibco, Billings, MT, USA). Cells were then resuspended and diluted to 200,000 cells/mL in external solution. External solution contained 105 mM NaCl, 4 mM KCl, 1 mM MgCl2, 5 mM CaCl2, 10 mM HEPES, 40 mM N-Methyl-D-glucamine chloride, titrated to pH 7.4 with NaOH and osmolarity of 300 mOsm/kg; internal solution contained 70 mM NaCl, 70 mM KF, 10 mM KCl, 5 mM EGTA, 5mM HEPES, titrated to a pH 7.2 with KOH and osmolarity of 295 mOsm/kg.
The APC protocol was set as following: Cells were held at […] −80 mV for 100 ms, then a ramp protocol was performed from −100 mV to 80 mV at 0.4 mV/ms, hold the cell at −80 mV for another 100 ms, then steps were performed at −20 mV, 0 mV, +20 mV, +40 mV, and +60 mV for 100 ms of each step. Whole-cell currents were measured at 0 mV and normalized to current after external buffer addition.

hERG (Kv11.1) channel = tested on: hERG (Kv11.1) channel; design: method as in PMID 32408169; conditions: 10 µM; cited from earlier work
WT SLACK [1] = tested on: WT SLACK; design: method as in PMID 32408169; conditions: whole-cell patch clamp electrophysiology; read-out: IC50 versus WT SLACK; cited from earlier work
Kcnt1^L/L mice = tested on: Kcnt1^L/L mice; design: method as in PMID 33859800; conditions: cited from earlier work
[2] = design: method as in PMID 33859800; conditions: mice; cited from earlier work
SLACK mutant F364L = tested on: SLACK mutant F364L; design: method as in PMID 33859800; conditions: APC; read-out: IC50 versus SLACK mutant F364L; cited from earlier work
human WT SLACK = tested on: human WT SLACK; design: method as in PMID 33859800; conditions: APC; read-out: IC50 versus human WT SLACK; cited from earlier work
SLACK mutant G288S = tested on: SLACK mutant G288S; design: method as in PMID 33859800; conditions: APC; read-out: IC50 versus SLACK mutant G288S; cited from earlier work
SLACK = tested on: SLACK; design: method as in earlier work; conditions: patent application, no specific values reported; cited from earlier work
WT SLACK [3] = conditions: cited from earlier work
hERG [4] = conditions: Tl+-flux, cited from earlier work
[5] = tested on: co-cultured cortical neurons and glial cells; design: method as in PMID 33143429; conditions: cited from earlier work
A934T SLACK [6] = conditions: cited from earlier work
G288S SLACK [7] = tested on: G288S SLACK; design: method as in PMID 38893312; conditions: whole-cell APC; read-out: IC50 versus G288S SLACK; cited from earlier work
A934T SLACK [8] = tested on: A934T SLACK; design: method as in PMID 38782404; conditions: read-out: IC50 versus A934T SLACK; cited from earlier work
KV7.2 = tested on: KV7.2; design: method as in PMID 38782404; conditions: cited from earlier work
WT SLACK [9] = tested on: WT SLACK; design: method as in PMID 38782404; conditions: patch clamp; read-out: IC50 versus WT SLACK; cited from earlier work
hERG [10] = tested on: hERG; design: method as in PMID 38782404; conditions: cited from earlier work
G288S SLACK [11] = tested on: G288S SLACK; design: method as in PMID 38782404; conditions: read-out: IC50 versus G288S SLACK; cited from earlier work
WT SLICK = tested on: WT SLICK; design: method as in PMID 38782404; conditions: read-out: IC50 versus WT SLICK; cited from earlier work
[12] = design: method as in PMID 38782404; conditions: cited from earlier work
[13] = design: method as in PMID 38782404; conditions: human liver microsomes; cited from earlier work
[14] = whole-cell patch clamp electrophysiology, read-out: IC50 versus WT SLACK

IC50 (WT human SLACK): 2.7 µM
Fold less potent than hit 10 (SLACK inhibition) (WT human SLACK): ~2 fold
Structure (SMILES): CC(C)(Nc1ccc(Cl)cc1)C(=O)Nc1cnc(Oc2ccccc2F)nc1 [Analog 69]

IC50 (WT human SLACK): 7.2 µM
Fold less potent than hit 10 (SLACK inhibition) (WT human SLACK): 5 fold
Structure (SMILES): CC(C)(Cc1ccc(Cl)cc1)C(=O)Nc1cnc(Oc2ccccc2F)nc1 [Analog 73]

IC50 (WT human SLACK): 5.1 µM
SLACK Imax (WT human SLACK): 102%
Structure (SMILES): O=C(CCc1ccc(Cl)cc1)Nc1cnc(Oc2ccccc2F)nc1 [Analog 74]

WT SLACK inhibition, result in words (WT human SLACK): inactive
Structure (SMILES): O=C(COc1ccc(Cl)cc1)Nc1cnc(Oc2ccccc2F)nc1 [Analog 75]

IC50 (WT human SLACK): 2.1 µM
Structure (SMILES): O=C(Nc1cnc(Oc2ccccc2F)nc1)C(F)(F)Oc1ccc(Cl)cc1 [Analog 79]

WT SLACK inhibition, result in words (WT human SLACK): only a weak inhibitor
Structure (SMILES): CNCc1ccc(Cl)cc1 [Analog 80]

IC50 (WT human SLACK): > 10 µM
SLACK Imax (WT human SLACK): 79%
Structure (SMILES): CN(Cc1ccc(Cl)cc1)C(=O)Nc1cnc(Oc2ccccc2F)nc1 [Analog 82]

IC50 (WT human SLACK): 3.1 µM
Fold less potent than hit 10 (SLACK inhibition) (WT human SLACK): ~2 fold
Structure (SMILES): CC(C)(Oc1ccc(Cl)cc1)C(=O)Nc1ccc(Oc2ccccc2F)nc1 [Analog 86]

IC50 (WT human SLACK): 1.8 µM
Structure (SMILES): CC(C)(Oc1ccc(Cl)cc1)C(=O)Nc1cnc(Oc2ccccc2F)c(C#N)c1 [Analog 87]

IC50 (WT human SLACK): 4.9 µM
Fold less active than pyridine 86 (WT human SLACK; WT SLACK APC IC50): 1.6 fold
SLACK Imax (WT human SLACK): 92%
Fold less potent than hit 10 (SLACK inhibition) (WT human SLACK): 3.5 fold
Structure (SMILES): CC(C)(Oc1ccc(Cl)cc1)C(=O)Nc1ccc(Oc2ccccc2F)cc1 [Analog 88]

IC50 (WT human SLACK): > 10 µM
WT SLACK inhibition, result in words (WT human SLACK): only weak inhibitors
SLACK Imax (WT human SLACK): 52%
Structure (SMILES): CC(C)(Oc1ccc(Cl)cc1)C(=O)Nc1ccc(Oc2ccccc2F)cn1 [Analog 89]

IC50 (WT human SLACK): > 10 µM
WT SLACK inhibition, result in words (WT human SLACK): only weak inhibitors
SLACK Imax (WT human SLACK): 50%
Structure (SMILES): CC(C)(Oc1ccc(Cl)cc1)C(=O)Nc1cnc(Oc2ccccc2F)cn1 [Analog 90]

Structure (SMILES): Cc1cccc(CC(=O)Nc2cnn(-c3cccc(C(=O)NCc4ccccc4-n4cncn4)c3)c2)c1 [Compound 1]
hERG (Kv11.1) channel blockade (hERG (Kv11.1) channel): almost completely blocked the channel
IC50 (WT SLACK [1]): 3.2 µM

Structure (SMILES): O=C(Nc1cccc(C(F)(F)F)c1)c1ccc2nc(N3C(=O)c4ccccc4C3=O)sc2c1 [Compound 2]
hERG (Kv11.1) channel blockade (hERG (Kv11.1) channel): 10–20%
IC50 (WT SLACK [1]): 3 µM

Structure (SMILES): O=C(Nc1cccc(C(F)(F)F)c1)c1ccc(CSc2nnnn2-c2ccccc2)cc1 [Compound 3]
hERG (Kv11.1) channel blockade (hERG (Kv11.1) channel): 45%
IC50 (WT SLACK [1]): 1.6 µM

Structure (SMILES): C[C@H](NC(=O)c1cc(C(F)(F)F)nn1C)c1nc(-c2ccnc(C(F)(F)F)c2)no1 [Compound 4]
anticonvulsant effects (Kcnt1^L/L mice): anticonvulsant effects were observed
bioavailability [2]: complete bioavailability
clearance [2]: 2.0 mL/min/kg
IC50 (SLACK mutant F364L): 1.8 µM
IC50 (SLACK mutant G288S): 0.22 µM

Structure (SMILES): O=C(N[C@@H]1CCc2cc(Cl)ccc21)c1ccc(S(=O)(=O)N2CCCC2)s1 [Compound 5]
IC50 (SLACK): < 1 µM
SLACK IC50 (SLACK): less than one micromolar

Structure (SMILES): COc1ccc(Cl)cc1NC(=O)CN1CCN(S(=O)(=O)N2CCC(C)CC2)CC1 [Compound 6]
IC50 (WT SLACK [3]; [14]): 1.7 µM
IC50 (hERG [4]): > 10 µM
frequency of calcium (Ca2+) oscillations, result in words [5]: inhibiting the frequency of calcium (Ca^2+) oscillations

Structure (SMILES): Cc1ccc2cccc(S(=O)(=O)N3CC(c4nc(-c5ccc(F)cc5)no4)C3)c2n1 [Compound 7]
IC50 (WT SLACK [3]; whole-cell APC, read-out: APC IC50 versus WT SLACK): 0.32 µM
A934T SLACK inhibition, result in words (A934T SLACK [6]): potent inhibitor
hERG activity, result in words (hERG [4]; 10 µM): inactive

Structure (SMILES): CCCCN(Cc1ccc(F)cc1)c1nc2c(c(=O)n(Cc3cccc(OC)c3)c(=O)n2C)n1C [Compound 8]
IC50 (WT SLACK [3]; [14]): 0.7 µM
IC50 (A934T SLACK [6]; whole-cell APC, read-out: IC50 versus A934T SLACK): 0.59 µM
IC50 (G288S SLACK [7]): 0.71 µM

Structure (SMILES): O=S(=O)(Nc1ccc2c(c1)CCN2Cc1ccc(C(F)(F)F)cc1C(F)(F)F)C1CCCCC1 [Compound 9]
IC50 (A934T SLACK [8]): 0.28 µM
activity on KV7.2 channels, result in words (KV7.2): no activity
IC50 (WT SLACK [9]): 0.2 µM
activity on hERG channels, result in words (hERG [10]): no activity
IC50 (G288S SLACK [11]): 0.3 µM
IC50 (WT SLICK): 1.3 µM
plasma protein binding, result in words [12]: highly bound to plasma proteins
metabolic stability (clearance), result in words [13]: low clearance compound
